Laboratory results as given in patent US20230042176A1, “METHOD FOR TREATING ANGELMAN SYNDROME AND RELATED DISORDERS” (priority 2019, published 2023).
Entries after “also recorded” stand apart in the source; their conditions may differ. Where two headings read alike, the source gives them in different places. Peptide text beside a SMILES is read from it. * marks the point of attachment. Cbz = O=C(OCc1ccccc1)*

Assays:
[1] = tested on: WT and UBE3A KO human induced neurons; assay: Whole cell patch clamp recordings of human induced neurons (fAHP amplitude, AP firing frequency); format: cell-based
healthy human volunteers = settings: i.v. infused for 1 hour; cited from earlier work
[2] = tested on: neurons of WT and UBE3A KO cortical organoids; assay: Whole cell and perforated patch clamp recordings of neurons in human cortical organoids; format: cell-based; settings: for changes in neuronal excitability, fAHP, and network hyperactivity and synchronization in human cortical organoids from UBE3A knockout stem cells: summary statement
Procedure: Cortical organoids were generated based on a published protocol (Pasca et al., Nat Methods 12, 671-678 (2015)) with minor modifications. hPSCs were dissociated to single cells by TrypLE Express (Thermofisher) and seeded into U-shaped ultra-low attachment 96-well plate (Corning) at a density of 6K cells/well in the presence of thiazovivin (5 μM, Tocris). After spheroid formation, media were completely changed to Neural Induction Media (NIM: DMEM/F12 (Nacalai Tesque), 20% KnockOut Serum Replacement (Thermofisher), 1% minimum essential media-nonessential amino acid (Thermofisher), 1% GlutaMax (Thermofisher), 1% Antibiotic-Antimycotic (Thermofisher), 0.1% β-mercaptoethanol (Thermofisher), 5 μM Dorsomorphin (Tocris), 10 μM SB431542 (Stemgent)) for the next 6 days, with media change every other day. Starting day 7, media were changed to Neural Growth Media (NGM: Neurobasal (Thermofisher), 1:50 B27 without vitamin A (Thermofisher), 1% GlutaMAX (Thermofisher), 1% Antibiotic-Antimycotic (Thermofisher), 20 ng/ml EGF (PeproTech), 20 ng/ml FGF-basic (PeproTech)) for the next 18 days, with media change every other day. Starting day 25, organoids were transferred out of 96-well plates to 6-well plates (6-8 organoids per well), cultured in Organoid Media I (OMI: Neurobasal (Thermofisher), 1:50 B27 without vitamin A (Thermofisher), 1% GlutaMax (Thermofisher), 1% Antibiotic-Antimycotic (Thermofisher), 10 mM HEPES (Thermofisher), 10 ng/ml BDNF (PeproTech), 10 ng/ml NT3 (PeproTech)) until day 100 on an orbital shaker (75 rev/min). After day 100, media were changed to Organoid Media II (OMII: BrainPhys (Stemcell Technologies), 1:50 SM1 (Stemcell Technologies), 1% GlutaMax (Thermofisher), 1% Antibiotic-Antimycotic (Thermofisher), 10 mM HEPES (Thermofisher), 10 ng/ml BDNF (PeproTech), 10 ng/ml GDNF (PeproTech), 10 ng/ml NT3 (PeproTech), 100 μM db-cAMP (Sigma)).
(§1) Whole cell patch clamp recordings of neurons in the organoid (wholemount) and acute mouse hippocampal slices were performed in a recording chamber (RC-26GLP, Warner Instruments) and submerged under continuously perfused artificial CSF (aCSF) containing (in mM): 119 NaCl, 2.5 KCl, 11 glucose, 26 NaHCO3, 1.25 NaH2PO4, 2.5 CaCl2 and 2 MgCl2 saturated with 95% O2 and 5% CO2 at 30-32° C. Neuronal intrinsic excitability was measured in the presence of CNQX (20 μM, Tocris) and APV (50 μM, Tocris) to block all excitatory synaptic responses. We targeted neurons near the surface of organoids with reasonably pyramidal-shaped cell bodies under our DIC/IR camera. […] Signals were recorded using a MultiClamp 700B amplifier, filtered at 2 kHz using a Bessel filter, and digitized at 40 kHz with a Digidata 1550B analog-to-digital (A/D) board (Molecular Devices, Sunnyvale, Calif.). […]

WT and Ube3a m-/p+ mice [3] = format: in vivo, mouse; settings: for seizure grade based on Racine's scale: no paxilline
Procedure: […]. Seizure severity of mice was dependent on multiple variables such as picrotoxin dose, mice age, and their body weights. […] Videos were recorded for all the behavioural experiments. Behavioral analysis was performed in a double-blind manner with littermates (siblings of wild-type (Ube3a^m+/p+) and maternal knockout (Ube3a^m−/p+) mice that produced from same pairs of Ube3a^m+/p− females and Ube3a^m+/p+ males).

WT and Ube3a m-/p+ mice [4] = assay: In vivo local field potential (LFP) recording in freely moving mice; design: species or system mouse; settings: paxilline 0.35 mg/kg, 4 times with 1-hour interval
Procedure: […]. Eye cream was applied to a mouse to protect the eye from drying due to anaesthesia. 2% lidocaine was injected under the scalp and subsequently scalp was removed to expose the skull. […] Stereotrodes were made with platinum-iridium wire (90%:10%, A-M system) and unilaterally implanted into BIC. Stainless steel screw (AP: 2 mm, Lateral: 2 mm) was used as a reference electrode. Iodopavidone was applied for disinfection around the surgical area after dental cement mounting. Mice were maintained on a heating pad at 37° C. until waking from the anaesthesia before putting back to home cages. LFP recordings were performed on the mice 5 days after surgery. LFP recordings were conducted in a copper-Faraday chamber. For evoked LFP, auditory stimulus (˜125 dB, 500 Hz) was provided by a speaker (EKX, Electro-Voice) driven by a customized program in Matlab. LFP was recorded with sampling rate at 500 Hz and filtered with 0.5 Hz high-pass and 100 Hz low-pass by EEG/EMG recording system (Pinnacle). […] Video was recorded simultaneously for further analysis. After all recordings, mice were sacrificed, and their brains were isolated and fixed using 4% PFA in PBS and the implanted electrode locations were confirmed by either bright field imaging or DAPI staining and subsequent fluorescence imaging.

WT and Ube3a m-/p+ mice [5] = assay: Flurothyl-induced seizures; format: in vivo, mouse; settings: paxilline pre-treatment 0.35 mg/kg i.p.; flurothyl 100 μl/min
Description: Chamber was cleaned and the tissue paper was replaced before each new trial.

[6] = tested on: hippocampal neurons of WT and Ube3a m-/p+ mice; assay: Whole cell patch clamp recordings in acute mouse hippocampal slices; format: cell-based; settings: paxilline, postnatal day 28
Procedure: as §1
For fAHP analysis in all recordings, automatic detection and calculation was conducted by customized matlab scripts adapted from published algorithm (Bean, Nat Rev Neurosci 8, 451-465 (2007); Platkiewicz and Brette, PLoS Comput Biol 6, e1000850 (2010); Yu et al., J Neurosci 28, 7260-7272 (2008)). […] The fAHP amplitude of each neuron was calculated by averaging the fAHP of the first spike in all current injection steps. […]

[7] = tested on: WT and UBE3A KO cortical organoids; assay: Two-photon calcium imaging of cortical organoids; format: cell-based, human; settings: paxilline 10 μM
[8] = tested on: BK protein level in HEK293 cells; assay: BK protein level in HEK293 cells overexpressing UBE3A (immunoblotting); format: cell-based, human; settings: proteasome inhibitor 1 μM
Procedure: Induced neurons or cortical organoids were lysed in RIPA buffer supplemented with protease and phosphatase inhibitor cocktails. Protein samples were loaded onto 8-12% Bis-TRIS (NP0322BOX Invitrogen) and were transferred onto a PVDF membrane. After blocking with 5% milk in TBS-T buffer for 1 hour, PVDF membranes were incubated with primary antibodies overnight at 4° C., followed by 1-hour incubation with mouse or rabbit HRP antibody (1:2000, Invitrogen) at RT. Images were visualized by either chemiluminescence or NIR fluorescent detection using c600 Imaging System (Azure Biosystems Inc). HEK293 cells were grown in DMEM (Sigma) containing 10% FBS (Gibco) and 100 U/mL penicillin-streptomycin (Gibco) in a 5% CO2 incubator. Cells were transfected with a Lipofectamine PLUS (Invitrogen), subsequently were treated with 1 μM of MG132 (A.G Scientific) for another 24 h. Next, cells were lysed in PBS containing 1% SDS (Invitrogen), 1 mM PMSF (USB), 10 μg/ml aprotinin (Roche), and 1% (v/v) phosphatase inhibitor cocktail 2 and 3 (Sigma).

CCCNc1nc(NCCC)nc(N(C)OC)n1 [GAL-021, 2-N-methoxy-2-N-methyl-4-N,6-N-dipropyl-1,3,5-triazine-2,4,6-triamine]
fAHP amplitude in KO hINs ([1]; GAL-021 50 μM or 100 μM, KO neurons): lowered | fAHP amplitude (and AP firing frequencies) in WT hINs ([1]; GAL-021 50 μM or 100 μM, WT neurons): did not change; also recorded: did not affect | spike frequency and fAHP in KO neurons compared with WT hINs ([1]; GAL-021 100 μM): Restoration | fAHP amplitude in KO hINs ([1]; GAL-021 200 μM, KO neurons): not significantly different from that of 100 μM | fAHP amplitude in KO hINs ([1]; GAL-021 200 μM, KO neurons, listed as GAL021): normalized fAHP | fAHP amplitude in WT hINs ([1]; GAL-021 200 μM, WT neurons): lowered | fAHP amplitude in WT hINs ([1]; GAL-021 200 μM, WT neurons, listed as GAL021): decreased fAHP | differences in fAHP amplitude and AP firing frequency between KO and WT neurons ([1]; GAL-021 50 or 100 μM): normalized | intrinsic excitability associated with augmented fAHP in UBE3A-deficient human neurons ([1]; GAL-021 application (50, 100, 200 μM tested)): returns to normal | tolerated i.v. infusion dosage (healthy human volunteers): 0.1 to 0.96 mg/kg/h | changes in neuronal excitability, fAHP, and network hyperactivity and synchronization in human cortical organoids from UBE3A knockout stem cells [2]: normalized

picrotoxin
seizure grade based on Racine's scale (WT and Ube3a m-/p+ mice [3]; picrotoxin 3 mg/kg i.p., Ube3a m-/p+ mice): 5 grade | seizure grade based on Racine's scale (WT and Ube3a m-/p+ mice [3]; picrotoxin 3 mg/kg i.p., WT mice): 1-2 grade

CC(C)(O)[C@H]1O[C@H]2CC[C@@]3(C)[C@@](O)(CC[C@H]4Cc5c([nH]c6ccccc56)[C@@]43C)C2=CC1=O [Paxilline, (2R,4bS,6aS,12bS,12cR,14aS)-4b-hydroxy-2-(1-hydroxy-1-methylethyl)-12b,12c-dimethyl-5,6,6a,7,12,12b,12c,13,14,14a-decahydro-2H-chromeno[5′,6′:6,7]indeno[1,2-b]indol-3(4bH)-one]
enhancement in the delta band (1-4 Hz) of LFP in Ube3a m-/p+ mice (WT and Ube3a m-/p+ mice [4]): normalized | reduction in the latency to myoclonic seizure in Ube3a m-/p+ mice (WT and Ube3a m-/p+ mice [5]): normalized | differences in fAHP amplitude and AP firing frequency between KO and WT neurons ([1]; 5 μM paxilline): normalized | excitability and fAHP in KO neurons ([1]; 5 μM paxilline, KO neurons): successfully restored excitability and fAHP to WT levels | fAHP in WT neurons ([1]; 20 μM paxilline, WT neurons): significantly lowered fAHP | fAHP in WT neurons ([1]; paxilline 5 μM, WT neurons): did not significantly reduce the fAHP | changes in excitability and higher fAHP in neurons from Ube3a m-/p+ mice [6]: normalized | frequencies and amplitudes of calcium transients in the organoids [7]: decreased both the frequencies and the amplitudes | higher levels of network synchronization in KO and AS iPSC-derived organoids [7]: abolished | seizure susceptibility in KO mice (WT and Ube3a m-/p+ mice [3]; paxilline high dose 3 mg/kg, KO mice): responded positively | seizure susceptibility in WT mice (WT and Ube3a m-/p+ mice [3]; paxilline high dose 3 mg/kg, WT mice): increased seizure susceptibility | seizure grade of Ube3a m-/p+ mice versus WT mice (WT and Ube3a m-/p+ mice [3]; paxilline pre-treatment 0.35 mg/kg i.p., picrotoxin 3 mg/kg i.p.): normalize | seizures caused by paxilline (WT and KO mice; 10 mg/kg paxilline, WT and KO mice): caused seizures | tremor in WT mice (WT and KO mice; paxilline 3 mg/kg compared to 0.35 mg/kg, WT mice): induced tremor | tremor in KO mice (WT and KO mice; paxilline 3 mg/kg, KO mice): not evident | augmented neuronal excitability and fAHP changes in neurons of KO organoids ([2]; paxilline 10 μM, KO organoids): normalized | spontaneous burst firing in neurons of UBE3A KO organoids ([2]; paxilline 10 μM, perforated patch recordings, KO organoids): completely converted spontaneous burst firing into single AP firing | changes in neuronal excitability, fAHP, and network hyperactivity and synchronization in human cortical organoids from UBE3A knockout stem cells [2]: normalized

CC(C)C[C@@H](C=O)NC(=O)[C@H](CC(C)C)NC(=O)[C@H](CC(C)C)NC(=O)OCc1ccccc1 [MG312] (Cbz-Leu-Leu-Leu-aldehyde)
decrease in the BK protein level caused by UBE3A coexpression [8]: abolished
